PubChem BioAssay AID248 (DTP/NCI, 2004)
Where “and” joins values, the source holds several entries; their conditions need not be identical. Identical values can stand only once. Inconclusive results and toxic doses are left out.

Test system: L1210 leukemia ip in BDF1 mice, survival T/C
Assay: NCI In Vivo Anticancer Drug Screen. Data for tumor model L1210 Leukemia (intraperitoneal) in B6D2F1 (BDF1) mice
Details: endpoint: mean survival time, higher = longer survival
Procedure, shortened: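 Mice bearing the transplanted tumor received compound or vehicle. Survival of the treated group was divided by that of the vehicle-treated control group to give the ratio.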

## O=c1[nH]c(=O)n([C@H]2CCCO2)cc1F
dose: 2.5 mg/kg/injection, schedule: Q01DX009 (ip), vehicle: saline
  T/C: 97 % of control
dose: 5.0 mg/kg/injection, schedule: Q01DX009 (ip), vehicle: saline
  T/C: 98 % of control
dose: 5.0 mg/kg/injection, schedule: Q01DX009 (oral), vehicle: saline
  T/C: 102 % of control
dose: 10.0 mg/kg/injection, schedule: Q01DX009 (ip), vehicle: saline
  T/C: 100 % of control
dose: 10.0 mg/kg/injection, schedule: Q01DX009 (oral), vehicle: saline
  T/C: 103 % of control
dose: 20.0 mg/kg/injection, schedule: Q01DX009 (ip), vehicle: saline
  T/C: 103 % of control
dose: 20.0 mg/kg/injection, schedule: Q01DX009 (oral), vehicle: saline
  T/C: 112 % of control
dose: 38.9 mg/kg/injection, schedule: Q01DX009 (ip), vehicle: saline
  T/C: 97 % of control
dose: 39.0 mg/kg/injection, schedule: Q01DX009 (ip), vehicle: Klucel (hydroxypropylcellulose) (HPC)
  T/C: 111 % of control
dose: 40.0 mg/kg/injection, schedule: Q01DX009 (ip), vehicle: saline
  T/C: 101 % of control
dose: 40.0 mg/kg/injection, schedule: Q01DX009 (oral), vehicle: saline
  T/C: 107 % of control
dose: 64.8 mg/kg/injection, schedule: Q01DX009 (ip), vehicle: saline
  T/C: 107 % of control
dose: 65.0 mg/kg/injection, schedule: Q01DX009 (ip), vehicle: Klucel (hydroxypropylcellulose) (HPC)
  T/C: 123 % of control
dose: 75.0 mg/kg/injection, schedule: Q04DX003 (ip), vehicle: other
  T/C: 95 % of control
dose: 80.0 mg/kg/injection, schedule: Q01DX009 (ip), vehicle: saline
  T/C: 114 % of control
dose: 80.0 mg/kg/injection, schedule: Q01DX009 (oral), vehicle: saline
  T/C: 118 % of control
dose: 105.0 mg/kg/injection, schedule: Q01DX012 (sc), vehicle: clinical formulation
  T/C: 159 % of control
dose: 108.0 mg/kg/injection, schedule: Q01DX009 (ip), vehicle: Klucel (hydroxypropylcellulose) (HPC)
  T/C: 159 % of control
dose: 108.0 mg/kg/injection, schedule: Q04DX003 (ip), vehicle: Klucel (hydroxypropylcellulose) (HPC)
  T/C: 113 % of control
dose: 150.0 mg/kg/injection, schedule: Q04DX003 (ip), vehicle: other
  T/C: 111 % of control
dose: 160.0 mg/kg/injection, schedule: Q01DX009 (ip), vehicle: saline
  T/C: 150 % of control
dose: 160.0 mg/kg/injection, schedule: Q01DX009 (oral), vehicle: saline
  T/C: 113 % of control
dose: 164.0 mg/kg/injection, schedule: Q01DX005 (sc), vehicle: clinical formulation
  T/C: 159 % of control
dose: 164.0 mg/kg/injection, schedule: Q01DX012 (sc), vehicle: clinical formulation
  T/C: 121 % of control
dose: 168.0 mg/kg/injection, schedule: Q01DX001 (ip), vehicle: other
  T/C: 99 % of control and 107 % of control
dose: 168.0 mg/kg/injection, schedule: Q01DX001 (sc), vehicle: other
  T/C: 107 % of control and 116 % of control
dose: 205.0 mg/kg/injection, schedule: Q01DX005 (sc), vehicle: clinical formulation
  T/C: 97 % of control
dose: 205.0 mg/kg/injection, schedule: Q01DX012 (sc), vehicle: clinical formulation
  T/C: 106 % of control
dose: 240.0 mg/kg/injection, schedule: Q01DX001 (ip), vehicle: other
  T/C: 116 % of control and 121 % of control
dose: 240.0 mg/kg/injection, schedule: Q01DX001 (sc), vehicle: other
  T/C: 112 % of control and 117 % of control
dose: 256.0 mg/kg/injection, schedule: Q01DX002 (sc), vehicle: clinical formulation
  T/C: 111 % of control
dose: 256.0 mg/kg/injection, schedule: Q01DX005 (sc), vehicle: clinical formulation
  T/C: 102 % of control
dose: 300.0 mg/kg/injection, schedule: Q01DX001 (ip), vehicle: Klucel (hydroxypropylcellulose) (HPC)
  T/C: 98 % of control
dose: 300.0 mg/kg/injection, schedule: Q01DX009 (ip), vehicle: Klucel (hydroxypropylcellulose) (HPC)
  T/C: 114 % of control
dose: 300.0 mg/kg/injection, schedule: Q01DX009 (ip), vehicle: saline
  T/C: 102 % of control
dose: 300.0 mg/kg/injection, schedule: Q04DX003 (ip), vehicle: Klucel (hydroxypropylcellulose) (HPC)
  T/C: 152 % of control
dose: 300.0 mg/kg/injection, schedule: Q04DX003 (ip), vehicle: other
  T/C: 161 % of control
dose: 320.0 mg/kg/injection, schedule: Q01DX009 (ip), vehicle: saline
  T/C: 160 % of control
dose: 320.0 mg/kg/injection, schedule: Q01DX009 (oral), vehicle: saline
  T/C: 98 % of control
dose: 363.0 mg/kg/injection, schedule: Q01DX001 (ip), vehicle: other
  T/C: 121 % of control
dose: 400.0 mg/kg/injection, schedule: Q01DX001 (sc), vehicle: clinical formulation
  T/C: 121 % of control
dose: 490.0 mg/kg/injection, schedule: Q01DX001 (ip), vehicle: other
  T/C: 121 % of control
dose: 500.0 mg/kg/injection, schedule: Q01DX001 (ip), vehicle: Klucel (hydroxypropylcellulose) (HPC)
  T/C: 117 % of control
dose: 500.0 mg/kg/injection, schedule: Q01DX001 (sc), vehicle: clinical formulation
  T/C: 123 % of control
dose: 500.0 mg/kg/injection, schedule: Q01DX002 (sc), vehicle: clinical formulation
  T/C: 110 % of control
